Experimental data: patent US7462600B2, “Macrolides” (Pfizer Inc, priority 2004, dated 2008)
≈ marks a conversion by molar mass, not a printed value.

Experiments:
Format in all cases: cell-based
[1] = system: Streptococcus pyogenes 1079; experiment: MIC, microtiter broth dilution (NCCLS M100-S14), S. pyogenes 1079 (ermB); settings: S. pyogenes 1079 (ermB)
In short: (§1)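 Broth microdilution MICs in microtiter trays, run and interpreted per NCCLS M100-S14. Compounds were dissolved in DMSO as 40 mg/ml stocks.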

[2] = system: Streptococcus pneumoniae 1016; experiment: MIC, microtiter broth dilution (NCCLS M100-S14), S. pneumoniae 1016 (susceptible); settings: S. pneumoniae 1016 (susceptible)
In short: as §1

[3] = system: Haemophilus influenzae 1218; experiment: MIC, microtiter broth dilution (NCCLS M100-S14), H. influenzae 1218 (susceptible); settings: H. influenzae 1218 (susceptible)
In short: as §1

[4] = system: Streptococcus pneumoniae 1175; settings: S. pneumoniae 1175 (mefA); microtiter broth dilution
In short: as §1

[5] = system: Streptococcus pneumoniae 1095; settings: S. pneumoniae 1095 (ermB); microtiter broth dilution
In short: as §1

| Compound | MIC S. pyogenes 1079 [1] [µg/mL] | MIC S. pneumo. 1016 [2] [µg/mL] | MIC H. influenzae 1218 [3] [µg/mL] | MIC S. pneumo. 1175 [4] [µg/mL] | MIC S. pneumo. 1095 [5] [µg/mL] |
| --- | --- | --- | --- | --- | --- |
| CCC1OC(=O)C(C)C(=O)C(C)C(OC2OC(C)CC(N(C)C)C2O)C(C)(OC)CC(C)C(=O)C(C)C2N(CC3CCCN3C(=O)c3cccc4nccnc34)C(=O)OC12C (centres unmarked) [10.33] | >64.00 | <0.06 | 2 (≈ 2.35 µM) | 0.25 (≈ 0.293 µM) | <0.06 |
| CCC1OC(=O)C(C)C(=O)C(C)C(OC2OC(C)CC(N(C)C)C2O)C(C)(OC)CC(C)C(=O)C(C)C2N(CC3CCCN3C(=O)c3cc4ccncc4[nH]3)C(=O)OC12C (centres unmarked) [10.34] | >64.00 | <0.06 | 2 (≈ 2.38 µM) | 0.12 (≈ 0.143 µM) | 0.12 (≈ 0.143 µM) |
| CCC1OC(=O)C(C)C(=O)C(C)C(OC2OC(C)CC(N(C)C)C2O)C(C)(OC)CC(C)C(=O)C(C)C2N(CC3CCCN3C(=O)c3cccn(Cc4ccccc4)c3=O)C(=O)OC12C (centres unmarked) [10.36] | >64.00 | <0.06 | 16 (≈ 17.6 µM) | 0.5 (≈ 0.551 µM) | 4 (≈ 4.41 µM) |
| CCC1OC(=O)C(C)C(=O)C(C)C(OC2OC(C)CC(N(C)C)C2O)C(C)(OC)CC(C)C(=O)C(C)C2N(CC3CCCN3C(=O)c3cccc4ccncc34)C(=O)OC12C (centres unmarked) [10.37] | 16 (≈ 18.8 µM) | <0.06 | 0.5 (≈ 0.588 µM) | <0.06 | <0.06 |
| CCC1OC(=O)C(C)C(=O)C(C)C(OC2OC(C)CC(N(C)C)C2O)C(C)(OC)CC(C)C(=O)C(C)C2N(CC3CCCN3C(=O)c3cnc4ncccc4c3)C(=O)OC12C (centres unmarked) [10.38] | >64.00 | <0.06 | 1 (≈ 1.17 µM) | 0.5 (≈ 0.587 µM) | <0.06 |
| CCC1OC(=O)C(C)C(=O)C(C)C(OC2OC(C)CC(N(C)C)C2O)C(C)(OC)CC(C)C(=O)C(C)C2N(CC3CCCN3C(=O)c3cc4cccnc4nc3C)C(=O)OC12C (centres unmarked) [10.39] | >64.00 | <0.06 | 2 (≈ 2.31 µM) | 0.5 (≈ 0.577 µM) | <0.06 |
| CCC1OC(=O)C(C)C(=O)C(C)C(OC2OC(C)CC(N(C)C)C2O)C(C)(OC)CC(C)C(=O)C(C)C2N(CC3CCCN3C(=O)c3cc4cccnc4nc3C(F)(F)F)C(=O)OC12C (centres unmarked) [10.40] | >64.00 | <0.06 | 2 (≈ 2.17 µM) | <0.06 | <0.06 |
| CCC1OC(=O)C(C)C(=O)C(C)C(OC2OC(C)CC(N(C)C)C2O)C(C)(OC)CC(C)C(=O)C(C)C2N(CC3CCCN3C(=O)c3cc4cnccc4nc3C)C(=O)OC12C (centres unmarked) [10.41] | >64.00 | <0.06 | 2 (≈ 2.31 µM) | <0.06 | <0.06 |
| CCC1OC(=O)C(C)C(=O)C(C)C(OC2OC(C)CC(N(C)C)C2O)C(C)(OC)CC(C)C(=O)C(C)C2N(CC3CCCN3C(=O)c3cc4ncccc4[nH]3)C(=O)OC12C (centres unmarked) [10.42] | 64 (≈ 76.2 µM) | <0.06 | 0.5 (≈ 0.595 µM) | <0.06 | <0.06 |
| CCC1OC(=O)C(C)C(=O)C(C)C(OC2OC(C)CC(N(C)C)C2O)C(C)(OC)CC(C)C(=O)C(C)C2N(CC3CCCN3C(=O)c3cn4cccnc4n3)C(=O)OC12C (centres unmarked) [10.43] | >64.00 | <0.06 | 1 (≈ 1.19 µM) | 0.25 (≈ 0.297 µM) | <0.06 |
